Laboratory results from patent publication US4229435A, “Preparation of blood fraction” (priority 1978, dated 1980).

Columns and labels:
Assay type in all cases: biochemical
Conditions in all cases: no reducing agent
F X = target: T1, F X (Homo sapiens, UniProt P00742); experiment: Coagulation factor X activity in plasma after reducing agent + iodoacetic acid
T1 construct: from tissue; host or cells: human citrated blood plasma
Description: (§1) Human blood with anti-coagulating agent (9 parts blood+1 part 3.8% trisodium citrate) is centrifuged and the following tests with plasma were carried out:
(§2) The plasma is divided into 8 ml portions, which are preheated at 37° C. for 5 min. DTT is added in different concentrations, see table 1 below, and is incubated for 5 min. at 37° C. Then iodoacetic acid, 3 mol per mol DTT, is added, and incubation takes place for 15 min. at 37° C. The plasma samples are distributed in portions of about 0.2 ml and are immediately frozen at -70° C. Testing of different coagulation factors is made in known manner.
(§3) The plasma is divided into 8 ml portions, which are preheated at 37° C. for 5 min. DTE is added in different concentrations (see table 2), and is incubated for 5 minutes at 37° C. Then, iodoacetic acid (3 mol per mol DTE) is added and incubation is carried out for 15 minutes at 37° C. The plasma samples are distributed in portions of about 0.2 ml and are immediately frozen at -70° C. Testing of different coagulation factors is made in a manner known per se.
as §3, with “minutes. Lipoic acid” for “min. DTE”, “3),” for “2),”, “lipoic acid)” for “DTE)”
as §3, with “minutes. Mercaptoethanol” for “min. DTE”, “4),” for “2),”, “mercaptoethanol)” for “DTE)”
as §3, with “minutes. Potassium borohydride” for “min. DTE”, “5,” for “2),”, “potassium borohydride)” for “DTE)”

F V = target: T2, F V (Homo sapiens, UniProt P12259); experiment: Coagulation factor V activity in plasma after reducing agent + iodoacetic acid
T2 construct: from tissue; host or cells: human citrated blood plasma
Description: as §1, §2, §3
as §3, with “minutes. Lipoic acid” for “min. DTE”, “3),” for “2),”, “lipoic acid)” for “DTE)”
as §3, with “minutes. Mercaptoethanol” for “min. DTE”, “4),” for “2),”, “mercaptoethanol)” for “DTE)”
as §3, with “minutes. Potassium borohydride” for “min. DTE”, “5,” for “2),”, “potassium borohydride)” for “DTE)”

F II = target: T3, F II (Homo sapiens, UniProt P00734); experiment: Coagulation factor II activity in plasma after reducing agent + iodoacetic acid
T3 construct: from tissue; host or cells: human citrated blood plasma
Description: as §1, §2, §3
as §3, with “minutes. Lipoic acid” for “min. DTE”, “3),” for “2),”, “lipoic acid)” for “DTE)”
as §3, with “minutes. Mercaptoethanol” for “min. DTE”, “4),” for “2),”, “mercaptoethanol)” for “DTE)”
as §3, with “minutes. Potassium borohydride” for “min. DTE”, “5,” for “2),”, “potassium borohydride)” for “DTE)”

[1] = Table 1 B: control plasma + iodoacetic acid, same amount as in F
[2] = Table 2 B: control plasma + iodoacetic acid, same amount as in E
[3] = Table 3 B: control plasma + iodoacetic acid, same amount as in E
[4] = Table 4 B: control plasma + iodoacetic acid, same amount as in D
[5] = Table 5 B: control plasma + iodoacetic acid, same amount as in D

T1 sequence (P00742 235-488 limits assumed): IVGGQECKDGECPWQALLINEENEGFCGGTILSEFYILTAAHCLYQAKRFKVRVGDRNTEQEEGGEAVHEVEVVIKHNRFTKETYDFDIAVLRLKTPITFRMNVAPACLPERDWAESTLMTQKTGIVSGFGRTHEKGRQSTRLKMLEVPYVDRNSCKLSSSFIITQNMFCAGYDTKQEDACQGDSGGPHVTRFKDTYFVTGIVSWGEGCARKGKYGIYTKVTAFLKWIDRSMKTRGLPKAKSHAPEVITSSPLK
T1 sequence (P00742 41-179 limits assumed): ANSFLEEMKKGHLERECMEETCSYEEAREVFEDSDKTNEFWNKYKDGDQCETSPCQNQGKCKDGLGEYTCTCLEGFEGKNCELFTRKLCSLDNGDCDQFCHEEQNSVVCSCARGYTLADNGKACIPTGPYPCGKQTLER
T2 sequence (P12259 29-2224): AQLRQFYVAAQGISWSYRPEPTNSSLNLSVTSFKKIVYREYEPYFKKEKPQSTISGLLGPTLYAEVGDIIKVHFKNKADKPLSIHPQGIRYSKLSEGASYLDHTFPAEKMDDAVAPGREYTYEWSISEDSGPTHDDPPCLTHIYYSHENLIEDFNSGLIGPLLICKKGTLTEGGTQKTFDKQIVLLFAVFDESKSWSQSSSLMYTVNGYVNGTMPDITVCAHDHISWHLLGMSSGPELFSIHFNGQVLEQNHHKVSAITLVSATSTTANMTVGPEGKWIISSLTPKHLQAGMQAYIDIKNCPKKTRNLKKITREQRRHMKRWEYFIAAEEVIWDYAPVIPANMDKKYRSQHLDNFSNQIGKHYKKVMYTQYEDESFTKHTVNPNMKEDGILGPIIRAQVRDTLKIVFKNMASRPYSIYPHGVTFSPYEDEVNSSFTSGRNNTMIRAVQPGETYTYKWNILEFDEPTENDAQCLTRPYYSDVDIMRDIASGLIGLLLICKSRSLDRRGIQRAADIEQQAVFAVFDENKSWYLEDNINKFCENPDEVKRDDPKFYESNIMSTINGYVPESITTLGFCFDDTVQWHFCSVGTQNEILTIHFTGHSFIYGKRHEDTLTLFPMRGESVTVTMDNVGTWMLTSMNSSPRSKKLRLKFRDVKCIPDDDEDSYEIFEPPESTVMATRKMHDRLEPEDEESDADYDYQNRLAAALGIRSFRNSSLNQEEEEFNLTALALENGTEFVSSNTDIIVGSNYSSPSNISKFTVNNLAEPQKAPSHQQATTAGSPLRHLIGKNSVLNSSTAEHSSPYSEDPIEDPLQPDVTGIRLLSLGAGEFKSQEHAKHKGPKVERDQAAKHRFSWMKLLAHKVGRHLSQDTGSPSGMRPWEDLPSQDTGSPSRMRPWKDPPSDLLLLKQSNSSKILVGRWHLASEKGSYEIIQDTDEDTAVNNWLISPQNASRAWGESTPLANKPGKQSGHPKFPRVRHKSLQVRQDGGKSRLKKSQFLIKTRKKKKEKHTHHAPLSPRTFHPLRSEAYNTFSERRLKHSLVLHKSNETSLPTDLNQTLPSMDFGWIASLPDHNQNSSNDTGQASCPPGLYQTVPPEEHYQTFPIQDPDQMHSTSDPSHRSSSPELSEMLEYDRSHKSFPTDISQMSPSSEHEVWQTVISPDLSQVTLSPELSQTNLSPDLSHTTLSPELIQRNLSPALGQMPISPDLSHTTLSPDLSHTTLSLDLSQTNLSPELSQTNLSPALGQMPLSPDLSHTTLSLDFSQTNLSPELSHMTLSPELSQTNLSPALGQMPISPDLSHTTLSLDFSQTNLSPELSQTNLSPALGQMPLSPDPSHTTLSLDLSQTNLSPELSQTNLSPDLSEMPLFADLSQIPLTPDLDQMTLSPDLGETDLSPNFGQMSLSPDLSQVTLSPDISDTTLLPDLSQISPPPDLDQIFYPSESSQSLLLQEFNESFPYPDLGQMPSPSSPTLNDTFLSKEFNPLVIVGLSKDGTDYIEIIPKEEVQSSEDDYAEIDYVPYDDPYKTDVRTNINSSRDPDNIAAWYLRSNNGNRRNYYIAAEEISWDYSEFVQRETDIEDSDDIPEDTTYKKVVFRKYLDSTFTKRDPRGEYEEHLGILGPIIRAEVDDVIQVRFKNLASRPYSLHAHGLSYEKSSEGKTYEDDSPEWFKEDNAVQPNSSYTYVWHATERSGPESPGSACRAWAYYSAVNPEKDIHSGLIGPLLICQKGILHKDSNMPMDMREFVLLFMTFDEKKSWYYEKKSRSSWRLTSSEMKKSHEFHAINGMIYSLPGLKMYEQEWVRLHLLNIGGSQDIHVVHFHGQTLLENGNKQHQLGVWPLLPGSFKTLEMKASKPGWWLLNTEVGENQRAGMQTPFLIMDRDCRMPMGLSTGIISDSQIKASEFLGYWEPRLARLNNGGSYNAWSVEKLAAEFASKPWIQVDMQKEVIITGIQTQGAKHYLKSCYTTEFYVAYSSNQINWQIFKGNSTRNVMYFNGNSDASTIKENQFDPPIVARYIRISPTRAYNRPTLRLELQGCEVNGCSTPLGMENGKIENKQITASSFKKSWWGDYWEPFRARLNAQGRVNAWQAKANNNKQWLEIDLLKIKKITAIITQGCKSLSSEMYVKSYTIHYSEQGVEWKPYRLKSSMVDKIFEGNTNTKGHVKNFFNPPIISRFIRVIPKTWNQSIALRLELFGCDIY

## O=C(O)CI [iodoacetic acid]
F X; [1]
  Coagulation factor F X: 96 % of control
F X; [2]
  Coagulation factor F X: 87 % of control
F X; [3]
  Coagulation factor F X: 87 % of control
F X; [4]
  Coagulation factor F X: 86 % of control
F X; [5]
  Coagulation factor F X: 86 % of control
F V; [1]
  Coagulation factor F V: 95 % of control
F V; [2]
  Coagulation factor F V: 105 % of control
F V; [3]
  Coagulation factor F V: 105 % of control
F V; [4]
  Coagulation factor F V: 67 % of control
F V; [5]
  Coagulation factor F V: 67 % of control
F II; [1]
  Coagulation factor F II: 99 % of control
F II; [2]
  Coagulation factor F II: 100 % of control
F II; [3]
  Coagulation factor F II: 100 % of control
F II; [4]
  Coagulation factor F II: 88 % of control
F II; [5]
  Coagulation factor F II: 88 % of control
